Assay results taken from US4902791A, “Nitrosourea derivatives, process for their preparation and medicaments containing them” (Sanofi S.A., priority 1983, dated 1990).
Values after ≈ are worked out from the molar mass of the structure shown.

How the values were obtained:
[1] = tested on: L 1210 cell; assay: 20% cytotoxic index, trypan blue exclusion, 24 h (TEST N° 1); type: cell-based, mouse; design: key to DOSE CORRESPONDING TO A 20% CYTOTOXIC INDEX: N.S.: not significant; details: L1210 cells, 24 hours at 37° C.; for IC20: Mus musculus, read-out: DOSE COR[…] A 20% CYTOTOXIC INDEX, read-out: DOSE CORRESPONDING TO A 20% CYTOTOXIC INDEX
Method: (§1) The test used is that of W. J. Durkin et al. Cancer Research 1979, 39, 402-407, modified.
(§2) All the nitrosoureas were dissolved in 70% ethanol in the proportion of 10 mg/ml.
1--Determination of the 20% cytotoxic index
100 μl of an L 1210 cell suspension (10^6 cells per ml) in R P M I 1640 culture medium supplemented with 10% of fetal calf serum and 40 μg/ml of gentamycin, containint various doses of the products to be tested (0 to 100 μg/ml) were incubated 24 hours at 37° C. At the end of this time, the cell viability is determined by the trypan blue exclusion test. The cytotoxic index is defined by the formula: [formula]
The amount of ethanol is the same in the cultures containing the products to be tested and in the control cultures (this amount has no effect either on growth nor on cell viability).
For each product the dose which gives a cytotoxic index of 20% is determined.

[2] = tested on: L 1210 cells; assay: cytotoxic index after 1 h contact, potential "in vivo" activity (TEST N° 2); type: cell-based, mouse; design: key to CYTOTOXIC INDEX: N.S.: not significant; details: for CYTOTOXIC INDEX: 1 hour contact at dose giving 20% index, read after 48 hours; for POTENTIAL "IN VIVO" ACTION: active if cytotoxic index ≥40%
Method: as §1, §2
2--Determination of the potential "in vivo" activity
L 1210 cells, under conditions similar to the preceding protocol, were contacted for 1 hour with a dose of the various products tested corresponding to a cytotoxic index equal to 20%. After this time, the cells were placed in culture medium not containing nitrosoureas and incubated at 37° C. After 48 hours, the cytotoxic index was determined.

[3] = tested on: leucemia L 1210 IGR; assay: "in vivo" activity on leucemia L1210 IGR, 20 mg/kg i.p. days 1, 5, 9; design: species or system mouse; details: for percentage of cured mice: surviving more than 60 days
Method: Female DBA2 mice were used, about 8 weeks old and weighing about 20 g from the IFFA-CREDO center (les Oncins, 69210 Arbresles)
At day "0", each mouse received intraperitoneally an inoculum of […] in a volume of 0.2 ml.
After tumoral graft, the mice were distributed at random into 21 cages of 5 animals, themselves then distributed, by drawing lots, into 6 experimental series. Within these 6 experimental series, there were constituted a control series of 6 cages and 5 experimental series of 3 cages each, and of which the mice were intended to be treated by the compounds of the invention.
(§3) The protocol was identical for the 3 tumors and the 5 compounds of the invention to be tested.
(§4) As regards the experimental series to be treated, each mouse received, at days 1, 5 and 9, intraperitoneally, a dose of 20 mg/kg of the compound to be tested, in the volume of 0.2 ml of neutralized and sterilized olive oil.
(§5) As regards the control series, each mouse received, intraperitoneally, 0.2 ml of neutralized and sterilized olive oil.
(§6) The results are expressed by the relative increase in survival (T/C×100) calculated from the average survival of the treated animals (T) and that of the control animals (C)
(§7) The mice surviving more than 60 days were considered as cured.
(§8) The figures between parentheses indicate the percentage of cured mice.

[4] = tested on: Tumor LEWIS 3LL; assay: "in vivo" activity on Lewis tumor, 20 mg/kg i.p. days 1, 5, 9; design: species or system mouse; details: for percentage of cured mice: surviving more than 60 days
Method: Procedure was under the conditions which have just been described previously with regard to melanoma B16, by injecting the tumor cells, in the proportion of 2×10^6 per mouse, in the volume of 0.2 ml.
as §3, §4, §5, §6, §7, §8

[5] = tested on: melanoma B16; assay: "in vivo" activity on melanoma B16, 20 mg/kg i.p. days 1, 5, 9; design: species or system mouse; details: for percentage of cured mice: surviving more than 60 days
Method: Female C57 B 1/6 mice were used, about 8 weeks old and weighing about 20 g, from the IFFA-CREDO center.
At day "0", each mouse received intraperitoneally an inoculum of 2×10^6 tumor cells in a volume of 0.5 ml.
After tumoral graft, distribution at random was carried out as indicated above, to obtain a control series of 8 cages and 5 experimental series of 4 cages each, and of which the mice were intended to be treated by the compounds of the invention.
as §3, §4, §5, §6, §7, §8

[6] = tested on: L 1210 USA Tumor; assay: "in vivo" activity on L1210 U.S.A. tumor, 5 mg/kg i.p. days 1, 5, 9; design: species or system mouse
Method: The tumor L1210 U.S.A. is more resistant than tumor L1210 IGR.
(§9) The experiments were identical to those described in preceding paragraph 4 but lower doses were used.
There were inoculated into the mice, 10^5 tumor cells of L1210 U.S.A. intraperitoneally in a volume of 0.2 ml.
At days 1, 5 and 9, the compounds of the invention under test were injected intraperitoneally, at a lower dose than that used in the experiment described at 4, that is to say in the proportion of 5 mg/kg.

[7] = tested on: L 1210 IGR TUMOR; assay: "in vivo" activity on L1210 IGR tumor, 5 mg/kg i.p. days 1, 5, 9; design: species or system mouse
Method: as §9
The same protocol was carried out with the tumor L1210 IGR, by inoculating 10^5 tumor cells of L1210 IGR intraperitoneally in the volume of 0.2 ml then, at days 1, 5 and 9, there were injected intraperitoneally 5 mg/kg of each of the compounds to be tested.

[8] = tested on: L1210 U.S.A.; assay: antitumor activity on leukemia L1210 U.S.A., products of examples 33-39, I.P.; type: in vivo, mouse
Method: The experiments were always carried out on female mice which were specific pathogen-free (S. P. F.),
either of the line DBA/2JIco
or of the line B6 D2 F1/JIco (first generation hybrids between the lines C57BL/6 and DBA/2).
On the day of the graft (by convention day 0=D0) an inoculum of 1×10^5 tumor cells in a volume of 0.2 ml is administered to each mouse by the intraperitoneal route (I.P.).
This inoculum is prepared by diluting ascites fluid taken from the peritoneum of a donor female mouse in NCTC 109 medium (Eurobio Laboratories, Paris, France), counting of the cells in a MALASSEZ cell under a microscope and adjustment of the concentration to 5×10^5cells […] by means of the same medium.
The tumor line is an American strain of the line L1210.
After the tumor graft, the mice are distributed at random in cages of 5 animals. Subsequently, these cages containing 5 mice are themselves distributed at random into a control group (control) and groups treated with the I.C. products.
(§10) The doses of the products of the invention used in the different experiments are expressed in milligrams per kilogram of body weight.
(§11) The products to be injected were dissolved in isotonic sodium chloride solution.
2 protocols for treatment were used in the different experiments:
either a single injection on D1, by the intraperitoneal (I.P.) or intravenous (I.V.) route,
(§12) or 3 I.P. injections on D1, D5, D9.
(§13) In each experiment the animals of the control group received 1 or more injections, depending on the experimental protocol used, by the same route (I.P. or I.V.) of the same volume (0.2 ml/20 g) of the vehicle without the active principle (isotonic sodium chloride solution).
(§14) the number and percentage of the total of the mice surviving to D60,
(§15) the T/C×100 for the treated groups.
(§16) T representing the mean survival time of the mice in the treated group,
(§17) C representing the mean survival time of the mice in the control group (controls).

[9] = tested on: melanoma B16; assay: antitumor activity on melanoma B16, products of examples 33-39, I.P.; type: in vivo, mouse; details: B6 D2 F1, I.P. D1, D5, D9, 3×10 mg/kg
Method: The experiments are always carried out on SPF female mice, B6 D2 F1/JIco (first generation hybrids between the lines C57BL/6 and DBA/2).
On the day of the graft (day 0), an inoculum of 2×10^6 tumor cells in a volume of 0.5 ml is administered to each mouse by the intraperitoneal route (I.P.). This inoculum is prepared from a sub-cutaneous tumor excised from a donor female mouse. After excision the tumor is fragmented by means of a pair of scissors in the NCTC 109 medium. After filtration through sterile gauze in order to remove large cellular fragments, the homogeneous cell suspension obtained is counted by means of a MALASSEZ cell and diluted to the desired concentration (4×10^6tumor cells per ml) by dilution with the NCTC 109 medium.
This was performed in the manner described for the leukemia L1210 (see above).
as §10, §11, §12, §13, §14, §15, §16, §17

[10] = toxicological results, single I.P. dose, DL0 and DL50; type: in vivo, mouse; details: mouse, in vivo, ip, mice
From the text: DL0, DL50, single I.P. dose administered to the aforementioned strains of mice.

[11] = B6 D2 F1, I.P. D1, D5, D9, 3×1.25 mg/kg
[12] = B6 D2 F1, I.P. D1, D5, D9, 3×5 mg/kg

| SMILES | CYTOTOXIC INDEX [2] | relative increase in survival (T/C×100) [3] | percentage of cured mice [3] [%] | relative increase in survival (T/C×100) [4] | percentage of cured mice [4] [%] | relative increase in survival (T/C×100) [5] | percentage of cured mice [5] [%] | Average survival ±2 σm [6] | Median survival [6] | T/C × 100 (average survival) [6] | T/C × 100 (median survival) [6] | Average survival ±2 σm [7] | Median survival [7] | T/C × 100 (average survival) [7] | T/C × 100 (median survival) [7] | IC20 [1] [µg/mL] | POTENTIAL "IN VIVO" ACTION [2] | further results |
| --- | --- | --- | --- | --- | --- | --- | --- | --- | --- | --- | --- | --- | --- | --- | --- | --- | --- | --- |
| CO[C@@H]1C[C@@H](O)[C@H](O)[C@@H](CNC(=O)N(CCCl)N=O)O1 [IC 1350] | N.S. | 362 | 20 | 325 | 40 | 225 | 5 | 10,5 ± 0,74 | 10,25 | 126 | 118 | 14,3 ± 1,23 | 14,25 | 158 | 157 |  |  | DOSE CORRESPONDING TO A 20% CYTOTOXIC INDEX [1]: N.S. |
| CO[C@@H]1C[C@@H](NC(=O)N(CCCl)N=O)[C@H](OC)[C@@H](C)O1 [IC 1373, Methyl 3-[3-(2-chloroethyl) 3-nitrosoureido] 2,3,6-tridesoxy 4-O-methyl alpha-D-arabinohexopyranoside] | 68% | .infin. (The sign 00 indicates that 50% at least of the mice were cured) | 100 | 316 | 30 | 165 | 0 | 10,6 ± 0,44 | 10,6 | 123 | 122 | 12,9 ± 0,55 | 13,1 | 142 | 145 | 80 (≈ 258 µM) | + (if the cytotoxic index was equal to or greater than 40%, the product concerned would be active "in vivo" in the mouse) |  |
| CO[C@@H]1C[C@@H](N(C)C(=O)N(CCCl)N=O)[C@H](O)[C@@H](C)O1 [IC 1375, Methyl 3-[3-(2-chloroethyl) 1-methyl 3-nitrosoureido] 2,3,6-tridesoxy α-D-arabinohexopyranoside] | 69% |  |  |  |  |  |  |  |  |  |  |  |  |  |  | 60 (≈ 194 µM) | + (if the cytotoxic index was equal to or greater than 40%, the product concerned would be active "in vivo" in the mouse) |  |
| CO[C@H]1C[C@@H](NC(=O)N(CCCl)N=O)[C@H](O)[C@@H](CO)O1 [IC. 85-1673, methyl 3-[3-(2-chloroethyl) 3-nitrosoureido] 2,3-dideoxy β-D-arabino-hexopyranoside] |  |  |  |  |  |  |  |  |  |  |  |  |  |  |  |  |  | Number of survivors [8, 11]: 0/10; T/C [8, 11]: 158; Number of survivors [8, 12]: 6/10; T/C [8, 12]: 626; Number of survivors [9]: 4/10; T/C [9]: 232; LD50 [10]: ~20 mg/kg |
